As usually defined, the inhibition is the share of the control response that was lost under treatment. The term melting point denotes the temperature of the solid-liquid transition. Broadly, the IC50 is the concentration needed to halve the response being measured. Read a high IC50 as a need for much substance.

In data set [1] the target is T1, recombinant human plasminogen activator inhibitor-1 (Homo sapiens, UniProt P05121).
T1 construct: purchased Molecular Innovations, Royal Oak, Mich
Description: Primary screen for the PAI-1 inhibition (residual tPA activity, chromogenic substrate Spectrozyme-tPA). The class given is biochemical. The settings on record: 25 uM test compound; 140 nM PAI-1, 70 nM tPA, pH 6.6. The procedure: Primary Screen for the PAI-1 Inhibition The ability of the compounds of this invention to inhibit plasminogen activator inhibitor-1 was established by the following experimental procedures: Test compounds were dissolved in DMSO at a final concentration of 10 mM, then diluted 100× in physiologic buffer. The inhibitory assay was initiated by the addition of the test compound (1–100 μM final concentration, maximum DMSO concentration of 0.2%) in a pH 6.6 buffer containing 140 nM recombinant human plasminogen activator inhibitor-1 (Molecular Innovations, Royal Oak, Mich.). Following a 1 hour incubation at room temperature, 70 nM of recombinant human tissue plasminogen activator (tPA) was added, and the combination of the test compound, PAI-1 and tPA was incubated for an additional 30 minutes. Following the second incubation, Spectrozyme-tPA (American Diagnostica, Greenwich, Conn.), a chromogenic substrate for tPA, was added and absorbance was read at 405 nm at 0 and 60 minutes. Relative PAI-1 inhibition was equal to the residual tPA activity in the presence of the test compounds and PAI-1. Control treatments included the complete inhibition of tPA by PAI-1 at the molar ratio employed (2:1), and the absence of any effect of the test compound on tPA alone.

The target in data set [2] is human PAI-1 (Homo sapiens, UniProt P05121). Description: Assay for determining IC50 of inhibition of PAI-1 (active PAI-1 bound to tPA-coated plate, antibody detection). It counts as binding. The conditions noted are these: human PAI-1 50 ng/ml, pH 7.5, tPA-coated plate. Here is the method:
Assay for Determining IC50 of Inhibition of PAI-1
This assay was based upon the non-SDS dissociable interaction between tPA and active PAI-1. Assay plates were initially coated with human tPA (10 μg/ml). Test compounds were dissolved in DMSO at 10 mM, then diluted with physiologic buffer (pH 7.5) to a final concentration of 1–50 μM. The test compounds were incubated with human PAI-1 (50 ng/ml) for 15 minutes at room temperature. The tPA-coated plate was washed with a solution of 0.05% Tween 20 and 0.1% BSA, then the plate is blocked with a solution of 3% BSA. An aliquot of the test compound/PAI-1 solution was then added to the tPA-coated plate, incubated at room temperature for 1 hour, and washed. Active PAI-1 bound to the plate was assessed by adding an aliquot of a 1:1000 dilution of the 33B8 monoclonal antibody against human PAI-1, and incubating the plate at room temperature for 1 hour (Molecular Innovations, Royal Oak, Mich.). […] The plate was incubated 45 minutes at room temperature, and color development is determined at OD405nm. The quantitation of active PAI-1 bound to tPA at varying concentrations of the test compound was used to determine the IC50. Results were analyzed using a logarithmic best-fit equation. The assay sensitivity is 5 ng/ml of human PAI-1 as determined from a standard curve ranging from 0–100 ng/ml.

Sequence of human PAI-1 (P05121 24-402): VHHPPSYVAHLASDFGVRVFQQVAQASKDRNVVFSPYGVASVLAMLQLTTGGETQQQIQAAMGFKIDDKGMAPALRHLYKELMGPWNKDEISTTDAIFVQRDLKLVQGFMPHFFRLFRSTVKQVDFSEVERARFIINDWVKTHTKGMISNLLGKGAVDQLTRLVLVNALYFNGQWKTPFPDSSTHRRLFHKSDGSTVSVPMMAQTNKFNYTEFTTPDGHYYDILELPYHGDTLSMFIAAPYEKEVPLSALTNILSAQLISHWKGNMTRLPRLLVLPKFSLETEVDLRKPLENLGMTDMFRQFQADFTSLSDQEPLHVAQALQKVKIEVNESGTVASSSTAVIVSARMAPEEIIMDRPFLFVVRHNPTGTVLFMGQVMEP
T1 sequence (P05121 24-402): as above

Turning to `CN(CC(=O)O)C(=O)C(=O)c1cn(Cc2ccccc2)c2ccc(-c3cccc(OC(F)(F)F)c3)cc12` [Example 3, 2-[(2-{1-Benzyl-5-[3-(trifluoromethoxy)phenyl]-1H-indol-3-yl}-2-oxoacetyl)(methyl)amino]acetic acid], the melting point lay in the range of 178 to 179 °C. The inhibition at 25 µM in data set [1] was 24%.

As to `O=C(O)CNC(=O)C(=O)c1cn(Cc2ccccc2)c2ccc(-c3ccc(OC(F)(F)F)cc3)cc12` [Example 2, 2-[(2-{1-Benzyl-5-[4-(trifluoromethoxy)phenyl]-1H-indol-3-yl}-2-oxoacetyl)amino]acetic acid], the melting point was 211 to 212 °C (dec.). In addition, it took 28 µM to reach half-maximal inhibition in data set [2] (IC50).

As for `Cc1cccc(-c2ccc3c(c2)c(C(=O)C(=O)NCC(=O)O)cn3Cc2ccc(C(C)(C)C)cc2)c1` [Example 1, {[[1-(4-tert-butylbenzyl)-5-(3-methylphenyl)-1H-indol-3-yl](oxo)acetyl]amino}acetic acid], the melting point is 120 to 121 °C. This compound also displayed an IC50 in data set [2] of 29 µM.
